Test results reported in US7642320B2, “Polymer additives with improved permanence and surface affinity” (Ciba Specialty Chemicals Corporation, priority 2001, dated 2010).

Assay: Solubility in polar media (methanol, ambient temperature)
Assay type: physicochemical

SMILES: CCC(C)(C)c1cc(-n2nc3ccccc3n2)c(O)c(C(C)(C)CC)c1 [Tinuvin ® 328]
- Solubility in methanol (wt %): 0.6 wt %
